Data reported in PubChem BioAssay (NCI).
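Five concentrations, 48 hours, 96-well plates. Definition used: TGI = concentration required for complete inhibition of growth.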

Assays:
Assay in all cases: NCI tumour cell line growth inhibition, 48 h
OVCAR-5 ovarian = test system: OVCAR-5 ovarian
NCI-H460 lung = test system: NCI-H460 lung
MALME-3M melanoma = test system: MALME-3M melanoma
COLO 205 colon = test system: COLO 205 colon
A549 NSCLC = test system: A549 NSCLC
SF-295 CNS = test system: SF-295 CNS
OVCAR-3 ovarian = test system: OVCAR-3 ovarian
HOP-62 NSCLC = test system: HOP-62 NSCLC
SF-268 CNS = test system: SF-268 CNS
SF-539 CNS = test system: SF-539 CNS

SMILES | TGI (OVCAR-5 ovarian) | TGI (NCI-H460 lung) | TGI (MALME-3M melanoma) | TGI (COLO 205 colon) | TGI (A549 NSCLC) | TGI (SF-295 CNS) | TGI (OVCAR-3 ovarian) | TGI (HOP-62 NSCLC) | TGI (SF-268 CNS) | TGI (SF-539 CNS)
COC(=O)C12CC(C3CC31)C1CC12 (configuration not stated) | > 100 µM | > 100 µM | > 100 µM | > 100 µM | > 100 µM | > 100 µM | > 100 µM | > 100 µM | > 100 µM | 
Cn1c(N)c(/C=N/NC(=O)CC#N)c(=O)n(C)c1=O | > 100 µM | > 100 µM | > 100 µM | > 100 µM | > 100 µM | > 100 µM | > 100 µM | > 100 µM | > 100 µM | 
Cc1cccc(NC(=O)CC(=O)N2N=C(N3c4ccccc4Sc4ccccc43)CC2c2ccccc2)c1 (configuration not stated) | > 100 µM | > 100 µM |  | > 100 µM | > 100 µM | > 100 µM | > 100 µM | > 100 µM | > 100 µM | > 100 µM
C=C(CCOC)CCC1CCCCC(=C)C1=O (configuration not stated) | > 100 µM | > 100 µM | > 100 µM | > 100 µM | > 100 µM | > 100 µM | > 100 µM | > 100 µM | > 100 µM | 
O=c1c(Cc2ccc(Cl)cc2)nnc2sc(-c3ccc([N+](=O)[O-])cc3)nn12 | 88.1 µM | 44.1 µM | 55.5 µM |  | > 100 µM | > 100 µM |  | > 100 µM | > 100 µM | 
CCCCC[C@H](O)[C@H](C)C=C1SCCCS1 | > 100 µM |  | > 100 µM | > 100 µM | > 100 µM | > 100 µM | > 100 µM | > 100 µM | > 100 µM | 
CCCCCCCCCCCCOC1C(COCCN2CCCC2)OC2OC(C)(C)OC21 (configuration not stated) | 2.88 µM |  | 3.35 µM | 3.22 µM | 16.1 µM | 3.28 µM | 3.05 µM | 3.2 µM | 4.44 µM | 3.17 µM
CNc1ccc2nc(-c3ccc(OC(=O)N(C)C)cc3)cn2c1 | 46 µM | 34.4 µM | > 100 µM | 32.2 µM | 32.4 µM | 31.5 µM | > 100 µM | 32.9 µM | 30 µM | 
CC(=O)Oc1ccc2cc(Oc3ccc(Cl)cc3)c(=O)oc2c1 | > 100 µM | > 100 µM | > 100 µM |  | 94 µM | 99 µM | 57.8 µM | > 100 µM | > 100 µM | 82.7 µM
C/C(=N\N(C)C)C(CN(C)C)C(c1ccccc1)c1c(O)c2ccccc2oc1=O (configuration not stated) | > 100 µM | > 100 µM | > 100 µM | > 100 µM | > 100 µM | > 100 µM | > 100 µM |  | > 100 µM | 
N#Cc1c(=O)c2cccnc2n2c1[nH]c1ccccc12 | > 100 µM | > 100 µM |  | > 100 µM | > 100 µM | > 100 µM | > 100 µM | > 100 µM | > 100 µM | > 100 µM
Cc1ccc2ccccc2c1CC1S(=O)(=O)OCCOS1(=O)=O | 24.4 µM | 27.4 µM | 25.2 µM | 6.1 µM | 29.6 µM | 27.4 µM | 19.5 µM | 28.5 µM |  | 
CCCCCCCCCCCCC(=O)NCC(=O)NC(Cc1ccccc1)C(=O)Oc1ccc([N+](=O)[O-])cc1 (configuration not stated) | > 100 µM | > 100 µM |  | 31.9 µM | > 100 µM | > 100 µM | > 100 µM | > 100 µM | > 100 µM | > 100 µM
O=C1/C(=C/c2ccccc2S)N=C(c2ccccc2)N1c1ccc2c(c1)Sc1cc(N3C(=O)/C(=C/c4ccccc4S)N=C3c3ccccc3)ccc1N2 | 35.6 µM | 63.7 µM |  | > 100 µM | 35 µM | 39.9 µM | 38.1 µM | 72.7 µM | 39.6 µM | 24.1 µM
O=C(Cn1c2ccc(Br)cc2c2nc3ccccc3nc21)NC1CCCCC1 | > 100 µM | > 100 µM | > 100 µM | > 100 µM | > 100 µM | > 100 µM | > 100 µM | > 100 µM | > 100 µM | 
Cc1ccc(S(=O)(=O)C(C#N)c2nc3ccccc3nc2-n2cccn2)cc1 (configuration not stated) | > 100 µM | > 100 µM | > 100 µM | > 100 µM | > 100 µM | > 100 µM | > 100 µM |  | > 100 µM | > 100 µM
CN(C)c1ccc(-c2nc(-c3cc4c(ccc5ccccc54)oc3=O)cs2)cc1 | > 100 µM | > 100 µM | > 100 µM | > 100 µM | > 100 µM | > 100 µM |  | > 100 µM | > 100 µM | > 100 µM
CC1(C)OC[C@@H](/C=C\CCO[Si](c2ccccc2)(c2ccccc2)C(C)(C)C)N1C(=O)c1ccccc1 | 46 µM | 17.3 µM |  | 21.9 µM | 23.2 µM | > 100 µM | 30.5 µM | > 100 µM | 81.4 µM | 45.4 µM

SMILES | TGI (OVCAR-5 ovarian) | TGI (NCI-H460 lung) | TGI (MALME-3M melanoma) | TGI (COLO 205 colon) | TGI (A549 NSCLC) | TGI (SF-295 CNS) | TGI (OVCAR-3 ovarian) | TGI (HOP-62 NSCLC) | TGI (SF-268 CNS) | TGI (SF-539 CNS)
C/C(=N\N=C(N)N)c1c(C(=O)OCCCCCCOC(=O)c2nc3sccn3c2/C(C)=N/N=C(N)N)nc2sccn12 | > 100 µM | > 100 µM | > 100 µM | > 100 µM | > 100 µM |  |  |  | > 100 µM | 
O=C(Cc1nc2ccc(C(=O)c3ccccc3)cc2[nH]c1=O)C(=O)Nc1ccccc1[N+](=O)[O-] | > 100 µM | > 100 µM | > 100 µM |  | > 100 µM | > 100 µM | > 100 µM |  | > 100 µM | > 100 µM
C=CCc1c(O)c2ccccc2[nH]c1=O | > 100 µM | > 100 µM | > 100 µM | > 100 µM | > 100 µM | > 100 µM | > 100 µM | > 100 µM |  | > 100 µM
NC1=NS(=O)(=O)N=C(N)C1=Cc1ccc([N+](=O)[O-])o1 | 32.9 µM | 35.9 µM | 29.7 µM | 29.1 µM | > 100 µM | 61.8 µM | 32.4 µM |  | 31.3 µM | 32.3 µM
C#CC(C)(C)Oc1cc(OC)c2c(=O)c3ccccc3n(C)c2c1 | 98.3 µM | 36 µM |  | 33.7 µM | 74.1 µM | 51.8 µM |  | > 100 µM | 73 µM | 76 µM
O=c1oc2ccccc2cc1-c1nc2ccc([N+](=O)[O-])cc2o1 |  | > 100 µM | > 100 µM | > 100 µM | > 100 µM | > 100 µM | > 100 µM | > 100 µM | > 100 µM | > 100 µM
O=C1c2cc([N+](=O)[O-])ccc2NC2C(O)c3ccccc3N12 (configuration not stated) | > 100 µM | 97 µM |  | > 100 µM | > 100 µM | > 100 µM | > 100 µM | > 100 µM | > 100 µM | 74.7 µM
CCCCCCCCCCCCCCCCOCC(CC(F)(F)P(=O)(O)O)OC(C)=O (configuration not stated) | > 50 µM | > 50 µM | > 50 µM | > 50 µM | > 50 µM | > 50 µM | > 50 µM | > 50 µM | > 50 µM | 
O=C1c2cc(Cl)ccc2-n2c(noc2=O)C2CSCN12 (configuration not stated) | > 100 µM | > 100 µM | > 100 µM | > 100 µM | > 100 µM | > 100 µM | > 100 µM | > 100 µM | > 100 µM | 
CC1=NN(c2nc(N)nc(/C(C#N)=C/c3ccncc3)n2)C(C)(C)C1 |  | > 100 µM |  | > 100 µM |  | > 100 µM |  | > 100 µM | > 100 µM | > 100 µM
Cc1nc2c(n1Cc1ccc(Cl)cc1)C(=O)c1ccccc1C2=O |  | > 75 µM | > 75 µM | > 75 µM | > 75 µM | > 75 µM | > 75 µM | > 75 µM | > 75 µM | > 75 µM
COc1cc(C2SCC(=O)N2NC(=O)c2ccc(NC(C)=O)cc2)cc(OC)c1OC (configuration not stated) | > 100 µM | > 100 µM |  | > 100 µM | > 100 µM | > 100 µM | > 100 µM | > 100 µM | > 100 µM | > 100 µM
Oc1ccc(-c2c3c(nc4c2CCc2ccc(Br)cc2-4)-c2cc(Br)ccc2CC3)cc1 | 40.6 µM | 53.2 µM | 50.4 µM | 32.4 µM | 40.8 µM | 31.7 µM | 29.5 µM | 33.6 µM | 39.9 µM | 
CC1(C)CC(=O)C(/C=N/c2nc(-c3ccc(Br)cc3)cs2)=C(O)C1 | > 100 µM | > 100 µM |  | 99.2 µM | > 100 µM | > 100 µM | 62.1 µM | > 100 µM |  | 61 µM
O=C1CSC2(CC(/C=C/C=C/c3ccccc3)=NN2c2cccc(S(=O)(=O)O)c2)N1c1nc2ccccc2s1 (configuration not stated) | > 100 µM | > 100 µM |  | > 100 µM | > 100 µM |  |  |  |  | > 100 µM
CC(C)(CN1CCCCC1)C(=O)CC(SCCS(=O)(=O)O)c1ccc(Br)cc1 (configuration not stated) | 9.34 µM | 4.48 µM | 3.38 µM | 2.82 µM | 4.78 µM | 16.7 µM |  | 18 µM | 5.48 µM | 3.96 µM
O=C1/C(=C/c2cccc(Oc3ccccc3)c2)N=C(c2ccccc2)N1c1nc2ccc(Sc3ccccc3)cc2[nH]1 | > 100 µM | 64 µM | > 100 µM | 31.5 µM | > 100 µM | 53.7 µM | 47.7 µM | > 100 µM | > 100 µM | 
